Test results taken from PMC11873239, “A covalent chemical probe for Chikungunya nsP2 cysteine protease with antialphaviral activity and proteome-wide selectivity” (Scientific Reports, 2025).
Where two headings read alike, the source gives them in different places.

How the values were obtained:
CHIKV nsP2pro = CHIKV nsP2pro (Chikungunya virus, UniProt F2YI08); settings: read-out: IC50 (CHIKV nsP2pro inhibition); cited from earlier work
EEEV-nLuc replicon [1] = settings: read-out: IC50 (EEEV-nLuc replicon)
[2] = test system: 20 human cysteine proteases and three viral cysteine proteases
EEEV-nLuc replicon [3] = assay: microbe, parasite or virus in culture; settings: Eastern equine encephalitis virus, Fibroblast, in Homo sapiens, 24 h, read-out: IC50 (EEEV-nLuc replicon)

Compound | IC50 (CHIKV nsP2pro) | IC50 (EEEV-nLuc replicon [1]) | inhibition across cysteine protease panel [2] | IC50 (EEEV-nLuc replicon [3])
CCOc1ccccc1-c1cc2n(n1)C(CS(C)(=O)=O)CNC2=O (stereo not shown) [Compound 2] | > 40000 nM |  |  | 
CCOc1ccccc1-c1cc(C(=O)NC/C=C/S(C)(=O)=O)on1 [Compound 3, (E)−3-(2-ethoxyphenyl)-N-(3-(methylsulfonyl)allyl)isoxazole-5-carboxamide] |  | 930 nM | no significant inhibition | 930 nM
